Laboratory results: US9957311B2, “Surface-binding peptide” (TIKOMED AB, priority 2013, dated 2018)
“Also recorded” adds a separate entry of the source.

Tests used:
Assay type in all cases: cell-based
integrin β3 = assay: Immunocytochemistry of integrin β3 in MC3T3-E1 cells on peptide-coated Ti; settings: after 72 h of culture, FIG. 12
Procedure: (§1) Under aseptic conditions, implants were immersed in a 3:7 (v/v) HNO3-DI water solution for 30 min at room temperature. Then, they were rinsed with milliQ water and placed in a covered milliQ water bath for 24 h. Implants were dried with N2 and were placed in a 96-well plates. Then, 200 μl of 50 μg/ml peptide solutions in PBS were added to each implant. Adsorption took place for 24 h at 37° C. in a humidified atmosphere. After 24 h peptide solutions were collected and surfaces were washed with 200 μl of PBS and air-dried in order to perform in vitro experiments.
(§2) MC3T3-E1 cells were routinely cultured at 37° C. in a humidified atmosphere of 5% CO2, and maintained in α-MEM supplemented with 10% FBS and antibiotics (50 IU penicillin/ml and 50 μg streptomycin/ml). 7.0×10^3 cells were seeded on the peptide-coated implants. Trypan blue stain was used to determine total and viable cell number. The same number of cells was cultured in parallel in plastic culture plates in the experiment. All experiments were performed after 4 passages of the MC3T3-E1 cells.
Cells grown for 24 and 72 h on the surfaces were fixed for 15 min with 4% formaldehyde in PBS at room temperature. Cells were incubated with 0.1% Triton X-100 for 5 min, 1% bovine serum albumin for 30 min and then with anti-integrin beta-3 antibody for 1 h at 1:50 dilution in PBS. Then, a Cy3-conjugated goat anti-rabbit IgG was used as secondary antibody for 1.5 h at 1:200 dilution in PBS. For actin cytoskeleton visualization, cells were stained with phalloidin-FITC 5 μg/mL in PBS for 30 min. Cells were washed with PBS and coin-shaped samples were placed on slides. Finally, a drop of Fluoroshield with DAPI was added and cover glasses were mounted on the samples. Two samples of each group were used to perform the experiment and two images of each sample were taken with the confocal microscope (Leica DMI 4000B equipped with Leica TCS SPE laser system).

MC3T3-E1 cells = assay: DNA quantification (cell number) of cells on peptide-coated Ti; settings: 48 h culture on Ti coated with 50 μg/ml peptide, FIG. 9
Procedure: as §1, with “Absorption” for “Adsorption”, “cell” for “in vitro”, “experiments. The surfaces were denoted Ti (uncoated Ti), P1 (Ti coated with IP10-RGD), P2 (Ti coated with IP10mut-RGD), P3 (Ti coated with IP10-RGDmut) and P4 (Ti coated with IP10mut-RGDmu).” for “experiments.”
as §2, with “α-minimum essential medium (α-MEM)” for “α-MEM”, “fetal bovine serum (FBS)” for “FBS”, “15” for “4”
Culture media was removed from wells and plates were frozen at −80° C. until the experiment was carried out. At the day of analysis, 100 μl of distilled water were added to each well. Plates were incubated for 1 hour at room temperature. Again, plates were frozen at −80° C. to lysate cells. Plates were thawed until reaching room temperature and 100 μl of Hoechst 33258 at 20 μg/ml in THE buffer were added. Then, 200 μl aliquots were transferred to 96-well fluorescence plates and a spectrophotometer was set to record fluorescence. Relative fluorescence units were correlated with the cell number using a linear standard curve.

integrin β3 (Itgb3) = assay: Real-time RT-PCR gene expression in MC3T3-E1 cells on peptide-coated Ti; settings: after 72 h of cell culture, FIG. 11
Procedure: as §1, with “experiments. […]” for “experiments.”
(§3) Total RNA was isolated using Tripure, according to the manufacturer's protocol. Total RNA was quantified at 260 nm using a Nanodrop spectrophotometer. […]
(§4) Each reaction contained 7 μl Lightcycler-FastStart DNA MasterPLUS SYBR Green I (containing Fast Start Taq polymerase, reaction buffer, dNTPs mix, SYBRGreen I dye and MgCl2), 0.5 μM of each, the sense and the antisense specific primers and 3 μl of the cDNA dilution in a final volume of 10 μl. […] After each cycle, fluorescence was measured at 72° C. […]
(§5) All samples were normalized by the geometric mean of the expression levels of 18S rRNA and Gapdh and fold changes were related to day 1 of culture using the mathematical model described by Pfaffl, A new mathematical model for relative quantification in real-time RT-PCR, Nucleic Acids Research 2001, 29: e45: […]

Integrin α8 (Itga8) = assay: as above; settings: after 72 h of cell culture, FIG. 11
Procedure: as §1, with “experiments. […]” for “experiments.”
as §3, §4, §5

MKKKGEGGGGGGGGRGDS (IP-10 derived peptide connected to RGD motif via poly-G-linker) [Peptide P1, surface P1 = Ti coated with it]
integrin β3 staining (integrin β3): allowed integrin β3 visualization; also recorded: highest integrin β3 staining; also recorded: allowed specific anti-integrin β3 staining
number of cells (DNA quantification) (MC3T3-E1 cells): highest number of cells
expression of Itgb3 compared with uncoated surfaces (integrin β3 (Itgb3)): increased gene expression
expression of Itga8 compared with uncoated surfaces (Integrin α8 (Itga8)): increased gene expression
